Literature values, collected in patent US20050250828A1 (Entire Interest, priority 2004, published 2005).

Columns and labels:
[1] = oral administration

Row | solubility in methanol (methanol) | solubility in water (water) | absorption when administered orally [1] | SMILES
1 | sparingly soluble | sparingly soluble | – | CCOc1nc2cccc(C(=O)OC(C)OC(=O)OC3CCCCC3)c2n1Cc1ccc(-c2ccccc2-c2nnn[nH]2)cc1 (racemic) [candesartan cilexetil, (±)-1-[[(cyclohexyloxy)carbonyl]oxy]ethyl-2-ethoxy-1-[[2′-(1H-tetrazol-5-yl)[1,1′biphenyl]-4-yl]methyl]-1H-benzimidazole-7-carboxylate]
2 | – | – | poorly absorbed | CCOc1nc2cccc(C(=O)O)c2n1Cc1ccc(-c2ccccc2-c2nnn[nH]2)cc1 [Candesartan, 2-ethoxy-1-[[2′-(1H-tetrazol-5-yl)biphenyl-4-yl]methyl]-1H-benzimidazole-7-carboxylic acid]
